The source made the active and inactive calls. No cut-off for these calls is given here.
Assays:
[1] = Acute toxicity in ICR mouse assessed as liver pathological change at 1500 mg/kg, po administered daily for 7 days by H and E staining based analysis; assay type: organism-based; settings: in vivo, 168 h, time 7 day
[2] = target: T1, Cathepsin G (Mus musculus) (UniProt P28293); assay: In vivo inhibition of Cathepsin G in C57BL/6 mouse assessed as reduction in cathepsin G activity in bone marrow administered orally once daily for 6 days by fluorescence based microplate reader; assay type: functional, organism-based; settings: dose 5-30 mg/kg, route po, time 6.0 day
T1 sequence (whole entry): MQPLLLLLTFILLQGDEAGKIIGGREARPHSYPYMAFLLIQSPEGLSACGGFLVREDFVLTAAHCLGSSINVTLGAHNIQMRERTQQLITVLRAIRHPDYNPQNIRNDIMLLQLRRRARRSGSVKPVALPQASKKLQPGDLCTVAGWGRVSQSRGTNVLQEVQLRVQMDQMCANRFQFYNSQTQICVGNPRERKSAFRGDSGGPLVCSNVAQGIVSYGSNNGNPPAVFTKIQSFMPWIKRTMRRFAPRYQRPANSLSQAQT

Mus musculus [3] = assay: Anti-inflammatory activity in DSS-induced ulcerative colitis male C57BL/6 mouse model assessed as reduction in TNF-alpha expression in colon administered via gavage for 10 days by ELISA; assay type: functional, organism-based; settings: dose 15-60 mg/kg, time 10.0 day
Mus musculus [4] = assay: Anti-inflammatory activity in DSS-induced ulcerative colitis male C57BL/6 mouse model assessed as increase in IL-10 expression in serum administered via gavage for 10 days by ELISA; assay type: functional, organism-based; settings: dose 15-60 mg/kg, time 10.0 day
Mus musculus [5] = assay: Anti-inflammatory activity in DSS-induced ulcerative colitis male C57BL/6 mouse model assessed as reduction in neutrophil elastase level in colon at 60 mg/kg administered via gavage for 10 days relative to control; assay type: functional; set-up: scale not given: the % may be the effect or the level left; settings: time 10 day
Mus musculus [6] = assay: Anti-inflammatory activity in DSS-induced ulcerative colitis male C57BL/6 mouse model assessed as increase in IL-10 expression in colon administered via gavage for 10 days by ELISA; assay type: functional, organism-based; settings: dose 15-60 mg/kg, time 10.0 day
[7] = Cmax in male Sprague-Dawley rat at 10 mg/kg, po measured at 5 to 1440 mins by LC-MS/MS analysis; assay type: ADME, organism-based; settings: in vivo, time 5-1440 min
Mus musculus [8] = assay: Anti-inflammatory activity in DSS-induced ulcerative colitis male C57BL/6 mouse model assessed as reduction in Cathepsin C level in serum at 15 to 30 mg/kg administered via gavage for 10 days; assay type: functional, organism-based; settings: dose 15-30 mg/kg, time 10.0 day
[9] = MRT in male Sprague-Dawley rat at 10 mg/kg, po measured at 5 to 1440 mins by LC-MS/MS analysis; assay type: ADME, organism-based; settings: in vivo, time 5-1440 min
Mus musculus [10] = assay: Anti-inflammatory activity in DSS-induced ulcerative colitis male C57BL/6 mouse model assessed as reduction in proteinase 3 level in colon at 60 mg/kg administered via gavage for 10 days relative to control; assay type: functional; set-up: scale not given: the % may be the effect or the level left; settings: time 10 day
[11] = target: T1, Cathepsin G (Mus musculus); assay: In vivo inhibition of Cathepsin G in C57BL/6 mouse assessed as reduction in cathepsin G activity in bone marrow at 30 mg/kg, po administered once daily for 6 days by fluorescence based microplate reader relative to control; assay type: functional, organism-based; settings: time 6.0 day
Mus musculus [12] = assay: Anti-inflammatory activity in DSS-induced ulcerative colitis male C57BL/6 mouse model assessed as increase in body weight at 60 mg/kg administered via gavage for 10 days; assay type: functional, organism-based; settings: time 10.0 day
[13] = Acute toxicity in ICR mouse assessed as lung pathological change at 1500 mg/kg, po administered daily for 7 days by H and E staining based analysis; assay type: organism-based; settings: in vivo, 168 h, time 7 day
[14] = target: T2, Dipeptidyl peptidase 1 (Mus musculus) (UniProt P97821); assay: In vivo inhibition of Cathepsin C in C57BL/6 mouse assessed as reduction in cathepsin C activity in blood administered orally once daily for 6 days by fluorescence based microplate reader; assay type: functional, organism-based; settings: dose 5-30 mg/kg, route po, time 6.0 day
T2 sequence (whole entry): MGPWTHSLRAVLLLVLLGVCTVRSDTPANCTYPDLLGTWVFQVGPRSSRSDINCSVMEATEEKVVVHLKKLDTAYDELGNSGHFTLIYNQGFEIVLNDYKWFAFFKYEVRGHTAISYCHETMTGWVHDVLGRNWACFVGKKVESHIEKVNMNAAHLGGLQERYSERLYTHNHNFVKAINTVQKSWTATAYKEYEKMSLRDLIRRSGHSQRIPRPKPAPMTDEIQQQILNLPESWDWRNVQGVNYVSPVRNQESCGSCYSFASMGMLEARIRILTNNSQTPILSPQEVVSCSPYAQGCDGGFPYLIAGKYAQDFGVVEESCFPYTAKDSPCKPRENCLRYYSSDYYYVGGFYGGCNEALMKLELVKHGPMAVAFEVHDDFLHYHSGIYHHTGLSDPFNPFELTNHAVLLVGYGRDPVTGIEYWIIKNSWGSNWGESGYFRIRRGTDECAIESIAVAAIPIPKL

[15] = target: T3, Myeloblastin (Mus musculus) (UniProt Q61096); assay: Induction of proteinase 3 degradation in C57BL/6 mouse bone marrow cells assessed as remaining activity at 10 uM incubated for 12 hrs by Western blot analysis relative to control; assay type: cell-based; settings: Bone marrow cell
T3 sequence (whole entry): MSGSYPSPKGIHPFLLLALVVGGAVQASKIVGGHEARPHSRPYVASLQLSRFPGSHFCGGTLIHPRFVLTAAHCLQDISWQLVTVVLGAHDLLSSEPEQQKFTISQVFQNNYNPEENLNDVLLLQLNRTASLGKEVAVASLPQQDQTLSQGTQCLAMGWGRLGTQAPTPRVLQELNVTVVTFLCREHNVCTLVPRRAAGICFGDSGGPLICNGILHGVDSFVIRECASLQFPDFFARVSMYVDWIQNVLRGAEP

[16] = target: T1, Cathepsin G (Mus musculus); assay: Induction of Cathepsin G degradation in C57BL/6 mouse bone marrow cells at 10 uM incubated for 24 hrs by Western blot analysis; assay type: cell-based; settings: Bone marrow cell
[17] = target: T4, Neutrophil elastase (Mus musculus) (UniProt Q3UP87); assay: Induction of neutrophil elastase degradation in C57BL/6 mouse bone marrow cells assessed as remaining activity at 10 uM incubated for 12 hrs by Western blot analysis relative to control; assay type: cell-based; settings: Bone marrow cell
T4 sequence (whole entry): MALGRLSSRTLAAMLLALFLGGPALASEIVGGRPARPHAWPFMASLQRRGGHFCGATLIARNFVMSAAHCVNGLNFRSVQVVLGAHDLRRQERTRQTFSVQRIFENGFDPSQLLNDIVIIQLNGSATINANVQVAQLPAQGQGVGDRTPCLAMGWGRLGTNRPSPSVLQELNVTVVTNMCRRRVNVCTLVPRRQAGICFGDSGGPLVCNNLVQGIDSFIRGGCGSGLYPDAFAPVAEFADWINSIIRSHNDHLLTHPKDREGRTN

[18] = Tmax in male Sprague-Dawley rat at 10 mg/kg, po measured at 5 to 1440 mins by LC-MS/MS analysis; assay type: ADME, organism-based; settings: in vivo, time 5-1440 min
[19] = target: T3, Myeloblastin (Mus musculus); assay: In vivo inhibition of proteinase 3 in C57BL/6 mouse assessed as reduction in proteinase 3 activity in bone marrow administered orally once daily for 6 days by fluorescence based microplate reader; assay type: functional, organism-based; settings: dose 5-30 mg/kg, route po, time 6.0 day
Mus musculus [20] = assay: Anti-inflammatory activity in DSS-induced ulcerative colitis male C57BL/6 mouse model assessed as reduction in neutrophil elastase level in serum at 15 to 30 mg/kg administered via gavage for 10 days; assay type: functional, organism-based; settings: dose 15-30 mg/kg, time 10.0 day

With `O=C1Nc2c(cccc2-c2ccc(NC3CCOCC3)cc2)/C1=C/c1ccnc2ccccc12` as the compound, how does the Activity [1] read?
The Activity was “Non-toxic”.

What about the inhibition [2] of the same compound?
The inhibition was “Dose-dependent-effect”.

And the Activity (Mus musculus [3])?
The Activity was “Active”.

And the Activity (Mus musculus [4])?
Its Activity is “Dose-dependent-effect; Significant Increase Observed In High Dose Group”.

What about the Activity (Mus musculus [5]) of the same compound?
The Activity was 50%.

What about the Activity (Mus musculus [6]) of the same compound?
Its Activity is “Dose-dependent-effect; Significant Increase Observed In High Dose Group”.

What about the Cmax [7] of the same compound?
The Cmax was 158 ng/mL.

And the Activity (Mus musculus [8])?
The Activity was “inactive”.

What about the MRT [9] of the same compound?
The MRT was 2.98 h.

And the Activity (Mus musculus [10])?
Its Activity is 47%.

And the inhibition [11]?
Its inhibition is 55.2%.

What about the Activity (Mus musculus [12]) of the same compound?
Its Activity is “Active”.

What about the Activity [13] of the same compound?
Its Activity is “Non-toxic”.

What about the inhibition [14] of the same compound?
Its inhibition is “Dose-dependent-effect”.

And the Activity [15]?
Its Activity is 75%.

What about the Activity [16] of the same compound?
The Activity was “Active”.

What about the Activity [17] of the same compound?
Its Activity is 75%.

And the Tmax [18]?
Its Tmax is 0.66 h.

And the inhibition [19]?
Its inhibition is “Dose-dependent-effect”.

And the Activity (Mus musculus [20])?
The Activity was “inactive”.
